Consider 19 molecules from PubChem BioAssay (NCI).

Holding throughout (assay): NCI anticancer screen, dose series, 48 h
For experiment [1], the system named is NCI-H522 lung.
Experiment [2] concerns SK-MEL-5 melanoma.
The subject of experiment [3] is OVCAR-5 ovarian.
In experiment [4] the test system is NCI-H226 lung.
The test system of experiment [5] is CAKI-1 renal.
For experiment [6], the system named is EKVX NSCLC.
Experiment [7] deals with OVCAR-8 ovarian.
Experiment [8] concerns HL-60(TB) leukemia.
For experiment [9], the system named is LOX IMVI melanoma.
Experiment [10] deals with SF-268 CNS.

“And” between values parts separate entries of the source, which are not always exact repeats. Equal values may be shown once.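 Cells were grown in 96-well plates and exposed to each compound for 48 hours at five concentrations; endpoints were interpolated linearly between bracketing concentrations, or set to the highest concentration if not reached. GI50 is the concentration that inhibits growth by half. TGI denotes the concentration required for complete inhibition of growth.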

Regarding `CN(C)Cc1cc(C(=O)/C=C/c2ccccc2)cc(CN(C)C)c1O`, the TGI in [1] was 40.8 µM; in experiment [2], 38.4 µM; in [3], over 100 µM; in experiment [4], 78.5 µM; in experiment [5], 61.8 µM; in experiment [6], over 100 µM. Further, the TGI is 99.8 µM in experiment [7], 42.3 µM in experiment [8], 17.7 µM in [9] and over 100 µM in experiment [10].
As for `COc1cc(C2C3=C(COC3=O)Oc3cc4c(cc32)OCO4)cc(OC)c1O` (stereo not given), the TGI was under 0.088 µM in experiment [1]; under 0.0187 µM in experiment [2]; 39.4 µM in [3]; 0.215 µM in experiment [4]; 21.6 µM in experiment [5]; 94.1 µM in [6]. Further, the TGI in experiment [7] came out at 1.05 µM; in experiment [8] it was 0.294 µM; in experiment [9], 19 µM; in experiment [10], 26.8 µM.
In the case of `CN(C)CCn1c(CO)nc2c1c(=O)n(C)c(=O)n2C`, the TGI in experiment [1], in [2], in experiment [3], in experiment [4], in [5] and in experiment [6] was over 100 µM each time. Besides, the TGI in experiment [7], in [8], in experiment [9] and in [10] was over 100 µM throughout.
For the molecule `CC1(C)CC2(CC(C)(C)N1O)NC(=O)OC2=O`, the TGI in [1], in experiment [2], in [3], in experiment [4], in [5] and in experiment [6] was over 100 µM in each case. The TGI in experiment [7], in [8], in experiment [9] and in experiment [10] was over 100 µM in each case.
Regarding `C=C=C(CC(CC(=C)Br)(C(=O)OC)C(=O)OC)S(=O)(=O)c1ccccc1`, the TGI in experiment [1] came out at 1.76 µM; in [2], 10.3 µM; in experiment [3], 3.43 µM; in experiment [4], 12.2 µM; in [5], 2.71 µM; in experiment [6], 10.8 µM. Also, the TGI in [7] is 3.44 µM; in [8], over 100 µM; in experiment [9] it was 1.7 µM; in experiment [10], 7.45 µM.
Regarding `COc1ccc(Nc2ccc3ccccc3c2-c2c(O)ccc3ccccc23)cc1`, the TGI is 32.8 µM in experiment [1]; 32.6 µM in experiment [2]; 31.8 µM in experiment [3]; 30.5 µM in [4]; 31.7 µM in experiment [5]; 31.8 µM in experiment [6]. In addition, the TGI in experiment [7] came to 33.6 µM; in [8] it was 55.2 µM; in experiment [9], 37.7 µM; in experiment [10] it was 35.9 µM.
Regarding `C/C(=N\Nc1nc2ccccc2n1C)c1cc2ccccc2cn1`, the TGI was determined as 4.67 µM in experiment [1]; 12.4 µM in [2]; 21.6 µM in experiment [3]; 2.22 µM in experiment [4]; 12.5 µM in [5]; 5 µM in experiment [6]. Moreover, the TGI turned out to be 4.24 µM in [7], 1.41 µM in experiment [8], 4.33 µM in experiment [9] and 11.7 µM in [10].
`O=c1c(-c2ccccc2)c(SCCO)n(-c2ccccc2)c(=S)n1-c1ccccc1`: the TGI in experiment [1], in experiment [2], in experiment [3], in experiment [4], in experiment [5] and in experiment [6] was over 100 µM throughout. Moreover, the TGI in [7], in experiment [8], in experiment [9] and in [10] was over 100 µM throughout.
Regarding `O=c1[nH]n(Cc2ccccc2)c2ccc([N+](=O)[O-])cc12`, the TGI in experiment [1], in experiment [2], in experiment [3], in experiment [4], in experiment [5] and in experiment [6] was over 100 µM in each case. Moreover, the TGI in experiment [7], in experiment [8], in experiment [9] and in experiment [10] was over 100 µM each time.
Turning to `CN(C)CCCNc1ccc2nnn3c4ccc(O)cc4c(=O)c1c23`, the TGI stood at 19.8 µM in experiment [1]; 19.7 µM in experiment [2]; 23.2 µM in experiment [3]; 17.3 µM in [4]; 13.1 µM in [5]; 25.3 µM in experiment [6]. For the same molecule, the TGI was 17.6 µM in experiment [7], over 46.9 µM in experiment [8], 4.12 µM in experiment [9] and 16.3 µM in [10].
`C=C(C)[C@H]1C2=CC(C)=C(O2)[C@@H](O[C@@H]2c3oc(cc3C)[C@H](C(=C)C)[C@H]3C=C(CC[C@H]2C(=C)C)C(=O)O3)[C@H](C(=C)C)CCC2=C[C@H]1OC2=O`: the TGI in experiment [1], in experiment [2], in experiment [3], in experiment [4], in experiment [5] and in experiment [6] was over 100 µM each time. In addition, the TGI in experiment [7], in experiment [8], in experiment [9] and in [10] was over 100 µM throughout.
Consider `CC(=O)NC1C(OCc2ccccc2)OC(CO)C(O)C1OC(C)C(=O)NC(C(=O)NC(CCC(=O)NCCCCNc1c2ccccc2nc2cccc([N+](=O)[O-])c12)C(N)=O)C(C)C` (stereo not given), for which the TGI is 0.511 µM in experiment [1]; 7.39 µM in [2]; 19.8 µM in [3]; 12.3 µM in experiment [4]; over 100 µM in experiment [5]; 10.1 µM in experiment [6]. Further, the TGI in experiment [7] was 9.62 µM; in experiment [8] it was 6.77 µM; in [9] it was 4.68 µM; in experiment [10], 13.1 µM.
Take `Cc1cc(OC(=O)NCn2cc(-c3ccccc3)nn2)ccc1Cl`: the TGI in [1], in experiment [2], in [3], in experiment [4], in experiment [5] and in experiment [6] was over 100 µM each time. Moreover, the TGI in [7], in experiment [8], in experiment [9] and in experiment [10] was over 100 µM in each case.
On to `CN1CC2=C(NC(=S)NC2c2ccccc2)/C(=C/c2ccccc2)C1` (stereo not given), for which the TGI in [1] was over 100 µM; in [2], 74.1 µM; in experiment [3] it was over 100 µM; in [4], over 100 µM; in [5] it was over 100 µM; in experiment [6], over 100 µM. The TGI in experiment [7] was over 10 µM; in experiment [8], over 10 µM; in [9], over 100 µM; in experiment [10], over 100 µM.
With `C=C(C)CC1(O[Si](C)(C)C)C(=O)C(OCC)=C1OCC` (stereo not given), the TGI in experiment [1], in experiment [2], in experiment [3], in [4], in experiment [5] and in experiment [6] was over 100 µM throughout. Further, the TGI in experiment [7], in experiment [8], in experiment [9] and in experiment [10] was over 100 µM in each case.
As to `CC(C)=CCNc1nc(Cl)nc2nc[nH]c12`, the TGI in experiment [1], in [2], in [3], in experiment [4], in experiment [5] and in experiment [6] was over 100 µM in each case. In addition, the TGI in experiment [7], in [8], in [9] and in experiment [10] was over 100 µM throughout.
Take `O=C(O)COc1cc(-c2ccccc2)nc2cc(F)ccc12`: the TGI in experiment [1], in experiment [2], in experiment [3], in experiment [4], in experiment [5] and in experiment [6] was over 100 µM in each case. Also, the TGI in experiment [7], in experiment [8], in experiment [9] and in [10] was over 100 µM throughout.
Turning to `CC1=C2C(=CO[C@H](C)[C@H]2C)C(=O)C(C(=O)O)=C1O`, the GI50 in [1] is 18.5 µM; in experiment [2], 20.4 µM; in [3], 29.5 µM; in experiment [4] it was 18.4 µM; in experiment [5], 16.6 µM; in [6], 28.9 µM. Also, the GI50 is 19.8 µM in experiment [7], 25.3 µM in experiment [8], 20.1 µM in experiment [9] and 22 µM in [10]. In addition, the TGI in experiment [1] is 36.4 µM and 34.4 µM; in [2], 35.7 µM and 45.4 µM; in experiment [3], 73 µM and 128 µM; in [4] it was 59.9 µM and 47.4 µM; in experiment [5], 54.2 µM and 77.8 µM; in [6], 83.6 µM and 63.2 µM. The TGI is 43.3 µM and 35.2 µM in experiment [7]; 59 µM and 25.7 µM in experiment [8]; 44.7 µM and 53.8 µM in experiment [9]; 59.2 µM and 38.2 µM in experiment [10].
With `CCOC(=O)c1cc2c([N+](=O)[O-])c(N)ccc2s1`, the TGI in experiment [1], in experiment [2], in experiment [3], in experiment [4], in experiment [5] and in experiment [6] was over 100 µM each time. Also, the TGI in [7], in experiment [8], in experiment [9] and in experiment [10] was over 100 µM throughout.
